Literature values in patent publication US20110046396A1, “POLYMORPHIC FORMS OF FLUVASTATIN SODIUM AND PROCESS FOR PREPARING THE SAME” (JUBILANT ORGANOSYS LIMITED, priority 2005, published 2011).

Details: compared with Form A or the amorphous form of Fluvastatin sodium; described in U.S. Pat. No. 6,124,340

For `CC(C)n1c(/C=C/[C@H](O)C[C@H](O)CC(=O)[O-])c(-c2ccc(F)cc2)c2ccccc21.[Na+]` (racemic) [Form B, (±)-7-(3-(4-fluorophenyl)-1-(1-methylethyl)-1H-indol-2-yl)-3,5-dihydroxy-6-heptenoic acid monosodium salt], the hygroscopicity is listed as “less hygroscopic than Form A or the amorphous form”.
